# Assay results from US20050214310A1 (priority 2004, published 2005).
# Like-named read-outs stand apart in the source and are kept apart here.
# Test system: H3677 melanoma cell line
# Experiment: cells
# Format: cell-based
# [1] = read-out: IC50 (μM) with L49-βL
molecule,measurement,setting,value
"N[C@@H](Cc1ccc(N(CCCl)CCCl)cc1)C(=O)O [melphalan, 4[bis(2 chloroethyl)amino]-L-phynelalanine, reference compound]",IC50,"Homo sapiens, H3677",2.8 µM
C-Mel Cyclobutyl Ester,IC50,read-out: IC50 (μM) with βL,0.8 µM
same,IC50,read-out: IC50 (μM) without βL,10 µM
C-Mel Cyclohexyl Ester,IC50,[1],0.23 µM
same,IC50,read-out: IC50 (μM) with βL,0.083 µM
same,IC50,read-out: IC50 (μM) without βL,1.6 µM
C-Mel Methyl Ester,IC50,read-out: IC50 (μM) with βL,0.0018 µM
same,IC50,read-out: IC50 (μM) without βL,0.65 µM
C-Mel t-Butyl Ester,IC50,read-out: IC50 (μM) with βL,2.1 µM
same,IC50,read-out: IC50 (μM) without βL,32.3 µM
Glutaryl C-Mel,IC50,[1],2.4 µM
same,IC50,read-out: IC50 (μM) with βL,1.4 µM
same,IC50,read-out: IC50 (μM) without βL,26.3 µM
Glutaryl C-Mel Cyclohexyl Ester,IC50,[1],0.14 µM
same,IC50,read-out: IC50 (μM) with βL,0.087 µM
same,IC50,read-out: IC50 (μM) without βL,1.86 µM
Glutaryl C-Mel-D-Phe-NH2,IC50,read-out: IC50 (μM) with βL,2.1 µM
same,IC50,read-out: IC50 (μM) without βL,30 µM
Glutaryl C-Mel-L-Phe-NH2,IC50,read-out: IC50 (μM) with βL,0.05 µM
same,IC50,read-out: IC50 (μM) without βL,3.6 µM
Mel-D-Glu(OMe)2 [Mel-D-Glu bis methyl ester],IC50,read-out: IC50,3.95 µM
Mel-Gly-nitrophenyl amide,IC50,read-out: IC50,1.01 µM
Mel-L-Glu(OMe)2 [Mel-L-Glu bis methyl ester],IC50,read-out: IC50,1.89 µM
Mel-L-Met amide,IC50,read-out: IC50,0.4 µM
Mel-L-Phe cyclohexyl amide,IC50,read-out: IC50,0.015 µM
Mel-L-homoPhe-NH2,IC50,read-out: IC50,0.09 µM
Mel-cyclohexyl amide,IC50,read-out: IC50,1.57 µM
Mel-phenethyl amide,IC50,read-out: IC50,0.97 µM
Mel-propargylalanine-NH2,IC50,read-out: IC50,0.31 µM
Melphalan (2-trifluoromethyl)phenethyl ester,IC50,read-out: IC50,3 µM
Melphalan (4-cis-t-butyl) cyclohexyl ester [melphalan cis-4-t-butylcyclohexyl ester],IC50,read-out: IC50,13 µM
Melphalan (4-n-propyl)phenethyl ester [melphalan (4-butyl)phenethyl ester],IC50,read-out: IC50,4.6 µM
Melphalan (4-trans-t-butyl) cyclohexyl ester,IC50,read-out: IC50,3.6 µM
Melphalan Cyclobutyl Ester,IC50,read-out: IC50,0.2 µM
Melphalan Cyclohexyl Ester,IC50,read-out: IC50,0.074 µM
Melphalan Cyclooctyl Ester,IC50,read-out: IC50,5 µM
Melphalan Methyl Ester,IC50,read-out: IC50,0.054 µM
Melphalan Phenethyl Ester,IC50,read-out: IC50,0.17 µM
Melphalan t-Butyl Ester,IC50,read-out: IC50,3.34 µM
glutaryl C-Mel t-butyl ester,IC50,read-out: IC50 (μM) with βL,2.3 µM
same,IC50,read-out: IC50 (μM) without βL,25 µM
melphalan amide,IC50,read-out: IC50,0.64 µM
melphalan anilide,IC50,read-out: IC50,1.2 µM
